{"source": "ChEMBL document CHEMBL1201862", "about": "“PubChem BioAssay data set” (2004)", "key": {"Aminopeptidase N": {"target": "T1, Aminopeptidase N (Plasmodium falciparum FcB1/Columbia, UniProt O96935)", "T1 sequence (O96935 whole entry)": "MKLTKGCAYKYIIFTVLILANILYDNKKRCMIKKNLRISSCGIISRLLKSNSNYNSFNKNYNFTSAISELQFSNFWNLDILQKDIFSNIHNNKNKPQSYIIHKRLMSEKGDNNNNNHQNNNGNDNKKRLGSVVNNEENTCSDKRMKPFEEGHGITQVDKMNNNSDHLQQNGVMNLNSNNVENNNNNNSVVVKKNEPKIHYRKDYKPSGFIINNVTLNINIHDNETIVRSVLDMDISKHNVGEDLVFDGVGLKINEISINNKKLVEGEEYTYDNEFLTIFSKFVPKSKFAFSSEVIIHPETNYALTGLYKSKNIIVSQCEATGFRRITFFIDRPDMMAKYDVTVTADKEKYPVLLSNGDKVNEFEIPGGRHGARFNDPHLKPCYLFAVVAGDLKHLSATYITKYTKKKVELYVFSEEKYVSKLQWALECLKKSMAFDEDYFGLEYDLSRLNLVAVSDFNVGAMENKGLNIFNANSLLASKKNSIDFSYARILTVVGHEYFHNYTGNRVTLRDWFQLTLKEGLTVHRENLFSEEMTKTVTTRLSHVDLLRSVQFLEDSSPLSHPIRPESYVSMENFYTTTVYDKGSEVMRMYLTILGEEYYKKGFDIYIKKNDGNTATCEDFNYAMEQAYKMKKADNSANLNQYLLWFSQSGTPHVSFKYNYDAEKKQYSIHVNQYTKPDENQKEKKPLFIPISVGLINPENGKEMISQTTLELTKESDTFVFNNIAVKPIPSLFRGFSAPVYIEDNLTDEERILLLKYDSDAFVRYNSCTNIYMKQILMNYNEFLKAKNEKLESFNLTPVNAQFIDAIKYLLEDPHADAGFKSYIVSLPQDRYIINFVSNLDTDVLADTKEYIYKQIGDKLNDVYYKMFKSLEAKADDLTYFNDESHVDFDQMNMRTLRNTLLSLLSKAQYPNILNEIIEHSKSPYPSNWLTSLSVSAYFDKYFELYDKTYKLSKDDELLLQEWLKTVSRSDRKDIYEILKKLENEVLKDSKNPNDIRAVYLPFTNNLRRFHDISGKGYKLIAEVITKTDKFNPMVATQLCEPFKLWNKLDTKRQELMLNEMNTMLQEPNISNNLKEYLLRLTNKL", "assay": "P. falciparum M1AAP inhibitors, biochemical, fluorogenic H-Leu-NHMec substrate, 1536-well (AID 1445)", "design": "species or system Plasmodium falciparum 3D7, 3D7"}, "Streptokinase A": {"target": "T2, Streptokinase A (Streptococcus pyogenes serotype M1, UniProt P10520)", "T2 sequence (P10520 whole entry)": "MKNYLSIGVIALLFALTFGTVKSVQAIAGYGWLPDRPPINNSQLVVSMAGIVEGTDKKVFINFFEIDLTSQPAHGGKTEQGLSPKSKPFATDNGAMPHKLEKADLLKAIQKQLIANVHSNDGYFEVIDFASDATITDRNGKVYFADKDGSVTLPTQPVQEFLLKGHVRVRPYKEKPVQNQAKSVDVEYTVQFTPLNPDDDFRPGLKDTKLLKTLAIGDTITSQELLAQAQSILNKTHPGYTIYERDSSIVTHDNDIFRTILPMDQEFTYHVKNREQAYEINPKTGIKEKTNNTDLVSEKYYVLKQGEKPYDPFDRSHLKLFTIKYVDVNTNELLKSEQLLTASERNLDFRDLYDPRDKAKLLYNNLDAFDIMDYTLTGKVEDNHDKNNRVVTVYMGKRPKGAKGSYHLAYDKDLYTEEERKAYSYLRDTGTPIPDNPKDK", "assay": "S. pyogenes streptokinase expression inhibitors, potency, dose response, plasminogen activation absorbance, OD405 (AID 1914);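 further: secreted streptokinase activity via plasminogen activation per viability signal from cell pellet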", "type": "functional, Streptococcus pyogenes M1 GAS"}, "Streptococcus": {"system": "Streptococcus", "assay": "Group A Streptococcus viability loss, dose response, counter-screen for streptokinase expression inhibitor project, luminescence, BacTiterGlo (AID 1915);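 further: potency for reduction of bacterial viability or growth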", "type": "functional, organism-based"}, "INS1": {"system": "INS1", "assay": "beta cell apoptosis inhibitors, cytokine rescue, dose response, luminescence, retest (AID 449756);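 further: cell death triggered by IL-1 beta plus TNF-alpha plus IFN-gamma mixture; protective hits raise ATP signal compared with cytokine alone wells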", "type": "functional, cell-based", "conditions": "Rattus norvegicus"}, "[1]": {"target": "T3, Dual specificity protein phosphatase 6 (Rattus norvegicus, UniProt Q64346)", "T3 sequence (Q64346 whole entry)": "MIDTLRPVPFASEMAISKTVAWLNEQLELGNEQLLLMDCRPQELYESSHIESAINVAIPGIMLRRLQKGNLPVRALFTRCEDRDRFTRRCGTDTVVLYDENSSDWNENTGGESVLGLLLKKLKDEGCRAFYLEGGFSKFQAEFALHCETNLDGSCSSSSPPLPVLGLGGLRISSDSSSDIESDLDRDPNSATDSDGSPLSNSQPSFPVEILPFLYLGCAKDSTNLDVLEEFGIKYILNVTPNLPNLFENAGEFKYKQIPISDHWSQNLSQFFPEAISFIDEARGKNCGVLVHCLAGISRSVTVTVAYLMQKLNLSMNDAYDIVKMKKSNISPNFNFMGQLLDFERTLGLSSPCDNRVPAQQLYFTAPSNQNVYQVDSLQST", "type": "functional"}, "[2]": {"target": "Heat shock protein HSP 90-alpha (Homo sapiens, UniProt P07900)", "type": "functional, organism-based"}, "[3]": {"target": "Cyclin-dependent kinase 5 (Homo sapiens, UniProt Q00535)", "sequence (Q00535 whole entry)": "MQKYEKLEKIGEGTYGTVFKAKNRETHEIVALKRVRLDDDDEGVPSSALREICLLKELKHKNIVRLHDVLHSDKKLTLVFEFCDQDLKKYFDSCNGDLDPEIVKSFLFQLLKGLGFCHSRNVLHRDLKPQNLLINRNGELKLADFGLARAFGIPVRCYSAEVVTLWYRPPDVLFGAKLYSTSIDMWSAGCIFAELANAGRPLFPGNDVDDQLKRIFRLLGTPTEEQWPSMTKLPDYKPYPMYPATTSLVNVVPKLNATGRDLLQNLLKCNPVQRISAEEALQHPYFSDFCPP", "type": "functional"}, "[4]": {"target": "Macrophage colony-stimulating factor 1 receptor (Homo sapiens, UniProt P07333)", "type": "functional"}, "[5]": {"target": "Tyrosine-protein kinase BTK (Homo sapiens, UniProt Q06187)", "type": "functional"}, "[6]": {"target": "Mast/stem cell growth factor receptor Kit (Homo sapiens, UniProt P10721)", "type": "functional"}, "[7]": {"target": "Dual specificity tyrosine-phosphorylation-regulated kinase 4 (Homo sapiens, UniProt Q9NR20)", "sequence (Q9NR20 whole entry)": "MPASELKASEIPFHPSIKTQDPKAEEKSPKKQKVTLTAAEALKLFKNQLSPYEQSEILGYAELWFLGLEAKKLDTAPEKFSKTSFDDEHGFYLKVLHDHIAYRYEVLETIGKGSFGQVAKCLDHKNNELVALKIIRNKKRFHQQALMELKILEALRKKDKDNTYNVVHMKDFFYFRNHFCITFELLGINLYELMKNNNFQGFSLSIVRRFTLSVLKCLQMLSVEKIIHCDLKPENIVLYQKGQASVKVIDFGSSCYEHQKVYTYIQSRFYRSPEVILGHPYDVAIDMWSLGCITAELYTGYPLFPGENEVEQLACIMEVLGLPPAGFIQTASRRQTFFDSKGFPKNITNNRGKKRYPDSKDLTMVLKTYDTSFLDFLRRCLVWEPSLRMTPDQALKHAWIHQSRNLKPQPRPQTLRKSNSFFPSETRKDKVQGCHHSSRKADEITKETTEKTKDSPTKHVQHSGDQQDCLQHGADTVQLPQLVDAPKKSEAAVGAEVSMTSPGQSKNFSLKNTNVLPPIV", "type": "functional"}, "[8]": {"target": "Vascular endothelial growth factor receptor 2 (Homo sapiens, UniProt P35968)", "type": "functional"}, "[9]": {"target": "STE20-like serine/threonine-protein kinase (Homo sapiens, UniProt Q9H2G2)", "type": "functional"}, "SRSF protein kinase 1": {"target": "SRSF protein kinase 1 (Homo sapiens, UniProt Q96SB4)", "type": "functional"}, "Insulin receptor": {"target": "Insulin receptor (Homo sapiens, UniProt P06213)", "type": "functional"}, "[10]": {"target": "Proto-oncogene tyrosine-protein kinase ROS (Homo sapiens, UniProt P08922)", "sequence (P08922 whole entry)": "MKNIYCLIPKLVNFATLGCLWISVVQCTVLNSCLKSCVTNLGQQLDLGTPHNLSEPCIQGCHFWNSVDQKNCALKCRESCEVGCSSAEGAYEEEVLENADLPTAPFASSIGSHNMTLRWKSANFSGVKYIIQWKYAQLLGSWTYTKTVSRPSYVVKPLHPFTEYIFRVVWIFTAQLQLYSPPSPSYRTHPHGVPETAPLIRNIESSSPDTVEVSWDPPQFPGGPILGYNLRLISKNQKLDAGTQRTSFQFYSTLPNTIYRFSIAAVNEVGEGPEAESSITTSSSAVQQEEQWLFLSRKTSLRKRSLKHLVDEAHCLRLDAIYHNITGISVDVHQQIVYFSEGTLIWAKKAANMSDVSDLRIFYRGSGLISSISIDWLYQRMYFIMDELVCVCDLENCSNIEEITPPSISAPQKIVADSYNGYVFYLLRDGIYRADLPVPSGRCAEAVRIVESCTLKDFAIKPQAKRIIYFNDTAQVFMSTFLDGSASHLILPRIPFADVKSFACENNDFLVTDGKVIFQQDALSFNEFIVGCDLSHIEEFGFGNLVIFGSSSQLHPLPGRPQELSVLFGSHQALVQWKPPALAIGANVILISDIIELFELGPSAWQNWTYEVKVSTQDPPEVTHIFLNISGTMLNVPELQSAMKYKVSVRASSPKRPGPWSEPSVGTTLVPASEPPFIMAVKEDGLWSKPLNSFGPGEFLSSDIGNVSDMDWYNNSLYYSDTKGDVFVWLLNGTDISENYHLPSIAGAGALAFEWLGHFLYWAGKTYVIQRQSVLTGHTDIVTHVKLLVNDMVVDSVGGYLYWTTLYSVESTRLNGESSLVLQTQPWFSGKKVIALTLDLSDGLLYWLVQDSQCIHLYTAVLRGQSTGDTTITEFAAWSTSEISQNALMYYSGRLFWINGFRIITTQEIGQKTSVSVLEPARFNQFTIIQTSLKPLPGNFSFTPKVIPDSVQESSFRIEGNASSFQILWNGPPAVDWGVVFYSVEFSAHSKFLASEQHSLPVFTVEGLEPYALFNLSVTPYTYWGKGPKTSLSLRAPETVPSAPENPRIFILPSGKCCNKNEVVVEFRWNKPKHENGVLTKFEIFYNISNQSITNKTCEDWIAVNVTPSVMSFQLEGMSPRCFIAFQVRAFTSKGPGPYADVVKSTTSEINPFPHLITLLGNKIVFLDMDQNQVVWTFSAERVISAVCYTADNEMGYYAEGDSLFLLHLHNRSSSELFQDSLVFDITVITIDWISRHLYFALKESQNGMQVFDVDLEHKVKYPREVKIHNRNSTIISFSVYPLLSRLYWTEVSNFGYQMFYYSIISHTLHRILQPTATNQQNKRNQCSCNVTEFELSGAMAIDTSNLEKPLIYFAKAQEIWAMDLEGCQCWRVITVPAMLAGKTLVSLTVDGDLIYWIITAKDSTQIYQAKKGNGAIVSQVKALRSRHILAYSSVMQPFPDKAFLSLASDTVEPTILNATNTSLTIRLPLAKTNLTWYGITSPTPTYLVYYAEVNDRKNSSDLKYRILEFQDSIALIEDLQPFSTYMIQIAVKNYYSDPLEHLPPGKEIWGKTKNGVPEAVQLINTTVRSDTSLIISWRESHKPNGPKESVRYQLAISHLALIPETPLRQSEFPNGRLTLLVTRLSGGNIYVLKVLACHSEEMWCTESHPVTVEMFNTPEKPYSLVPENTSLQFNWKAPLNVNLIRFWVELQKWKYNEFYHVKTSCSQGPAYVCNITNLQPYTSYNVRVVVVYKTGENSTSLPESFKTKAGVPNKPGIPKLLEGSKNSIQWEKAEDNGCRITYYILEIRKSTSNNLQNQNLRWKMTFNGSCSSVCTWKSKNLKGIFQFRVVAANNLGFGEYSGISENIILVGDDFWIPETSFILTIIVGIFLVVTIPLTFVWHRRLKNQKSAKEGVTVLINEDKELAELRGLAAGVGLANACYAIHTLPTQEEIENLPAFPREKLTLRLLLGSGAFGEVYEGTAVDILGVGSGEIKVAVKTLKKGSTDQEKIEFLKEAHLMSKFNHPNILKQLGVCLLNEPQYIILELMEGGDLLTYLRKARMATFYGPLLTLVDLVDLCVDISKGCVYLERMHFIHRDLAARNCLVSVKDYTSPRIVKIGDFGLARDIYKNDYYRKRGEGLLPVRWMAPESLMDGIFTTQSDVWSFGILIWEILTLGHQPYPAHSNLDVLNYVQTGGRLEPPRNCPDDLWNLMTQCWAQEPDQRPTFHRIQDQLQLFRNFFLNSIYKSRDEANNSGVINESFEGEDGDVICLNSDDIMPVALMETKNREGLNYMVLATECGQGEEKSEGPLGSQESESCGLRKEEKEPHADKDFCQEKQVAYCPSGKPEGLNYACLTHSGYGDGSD", "type": "functional"}, "[11]": {"target": "Cell division cycle 7-related protein kinase (Homo sapiens, UniProt O00311)", "sequence (O00311 whole entry)": "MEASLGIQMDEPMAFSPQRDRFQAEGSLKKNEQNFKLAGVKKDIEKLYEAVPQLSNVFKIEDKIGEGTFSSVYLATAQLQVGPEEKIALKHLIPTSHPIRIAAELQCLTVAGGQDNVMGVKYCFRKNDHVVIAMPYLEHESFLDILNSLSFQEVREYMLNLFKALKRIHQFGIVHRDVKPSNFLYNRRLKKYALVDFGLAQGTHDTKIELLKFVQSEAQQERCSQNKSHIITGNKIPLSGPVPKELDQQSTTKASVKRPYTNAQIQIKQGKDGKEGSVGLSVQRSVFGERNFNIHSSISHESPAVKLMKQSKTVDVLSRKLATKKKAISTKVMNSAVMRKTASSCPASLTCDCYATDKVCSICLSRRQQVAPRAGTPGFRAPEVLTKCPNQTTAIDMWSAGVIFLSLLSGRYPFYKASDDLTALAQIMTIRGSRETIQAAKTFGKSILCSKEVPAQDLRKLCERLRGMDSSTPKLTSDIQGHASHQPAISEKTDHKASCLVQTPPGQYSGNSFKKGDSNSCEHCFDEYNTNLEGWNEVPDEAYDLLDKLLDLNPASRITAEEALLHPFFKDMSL", "type": "functional"}, "[12]": {"target": "Tyrosine-protein kinase receptor UFO (Homo sapiens, UniProt P30530)", "sequence (P30530 whole entry)": "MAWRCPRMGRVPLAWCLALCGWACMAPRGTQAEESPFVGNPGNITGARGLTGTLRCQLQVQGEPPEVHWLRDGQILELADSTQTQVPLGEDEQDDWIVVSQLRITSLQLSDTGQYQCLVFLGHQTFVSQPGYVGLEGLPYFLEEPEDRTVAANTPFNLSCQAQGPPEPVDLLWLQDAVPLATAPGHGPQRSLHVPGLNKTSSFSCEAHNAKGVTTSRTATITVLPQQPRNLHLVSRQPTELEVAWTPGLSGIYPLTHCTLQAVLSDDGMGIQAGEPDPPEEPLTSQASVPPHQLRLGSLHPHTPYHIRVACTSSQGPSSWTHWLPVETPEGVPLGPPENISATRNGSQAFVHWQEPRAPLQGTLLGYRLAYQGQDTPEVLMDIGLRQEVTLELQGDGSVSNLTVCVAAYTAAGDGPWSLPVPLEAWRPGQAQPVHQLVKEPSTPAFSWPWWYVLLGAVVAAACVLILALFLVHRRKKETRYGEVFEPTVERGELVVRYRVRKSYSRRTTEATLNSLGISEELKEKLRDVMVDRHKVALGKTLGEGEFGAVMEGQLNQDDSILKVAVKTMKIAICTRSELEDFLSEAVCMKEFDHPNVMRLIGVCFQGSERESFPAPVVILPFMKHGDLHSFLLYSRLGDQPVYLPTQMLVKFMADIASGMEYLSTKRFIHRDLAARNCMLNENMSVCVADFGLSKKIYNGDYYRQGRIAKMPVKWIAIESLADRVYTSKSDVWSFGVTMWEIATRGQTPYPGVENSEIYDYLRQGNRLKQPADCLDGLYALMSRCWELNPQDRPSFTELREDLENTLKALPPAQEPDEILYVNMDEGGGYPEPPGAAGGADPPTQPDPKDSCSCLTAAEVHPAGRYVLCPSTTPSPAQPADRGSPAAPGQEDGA", "type": "functional"}, "[13]": {"target": "Serine/threonine-protein kinase D3 (Homo sapiens, UniProt O94806)", "type": "functional"}}, "note": "Active and inactive are the calls of the source.", "data": [{"smiles": "O=C1N=C(NS(=O)(=O)Cc2ccccc2)S/C1=C1\\C(=O)Nc2ccccc21", "values": [{"measurement": "IC50", "setting": "Aminopeptidase N", "value": "17.4 µM (active)"}]}, {"smiles": "O=C1C=C(N2CCCCC2)c2ccccc2C1=O", "values": [{"measurement": "EC50", "setting": "Streptokinase A", "value": "17.8 µM (active)"}, {"measurement": "EC50", "setting": "Streptococcus", "value": "> 50 µM (not active)"}, {"measurement": "AC50", "setting": "INS1", "value": "4.98 µM (active)"}]}, {"smiles": "O=C(O)C1Nc2c(O)cc(Cl)c([N+](=O)[O-])c2C2C=CCC12", "note": "(configuration not stated)", "values": [{"measurement": "IC50", "setting": "[1]", "value": "35.4 µM (active)"}]}, {"smiles": "Oc1ccc(N=Nc2c(O)ccc3ccccc23)cc1", "values": [{"measurement": "AC50", "setting": "[2]", "value": "5.61 µM (active)"}]}, {"smiles": "Cc1n[nH]c2ccc(-c3cncc(OCC(N)Cc4cccc(Cl)c4)c3)cc12", "note": "(configuration not stated)", "values": [{"measurement": "Ki", "setting": "[3]", "value": "0.0126 µM (active)"}, {"measurement": "pKi", "setting": "[3]", "value": 7.9}, {"measurement": "Ki", "setting": "[4]", "value": "> 2.51 µM (inactive)"}, {"measurement": "Ki", "setting": "[5]", "value": "> 1.26 µM (inactive)"}, {"measurement": "Ki", "setting": "[6]", "value": "> 1.26 µM (inactive)"}, {"measurement": "Ki", "setting": "[7]", "value": "0.316 µM (active)"}, {"measurement": "Ki", "setting": "[8]", "value": "3.98 µM (active)"}, {"measurement": "Ki", "setting": "[9]", "value": "1 µM (active)"}, {"measurement": "Ki", "setting": "SRSF protein kinase 1", "value": "> 5.01 µM (inactive)"}, {"measurement": "Ki", "setting": "Insulin receptor", "value": "3.16 µM (active)"}, {"measurement": "Ki", "setting": "[10]", "value": "0.631 µM (active)"}, {"measurement": "Ki", "setting": "[11]", "value": "0.000794 µM (active)"}, {"measurement": "pKi", "setting": "[11]", "value": 9.1}, {"measurement": "Ki", "setting": "[12]", "value": "0.158 µM (active)"}, {"measurement": "pKi", "setting": "[12]", "value": 6.8}, {"measurement": "Ki", "setting": "[13]", "value": "0.00398 µM (active)"}]}]}
